From publication PMC10291551, “Characterization of a Potent and Orally Bioavailable Lys-Covalent Inhibitor of Apoptosis Protein (IAP) Antagonist” (Journal of Medicinal Chemistry, 2023)
Converted amounts (≈) assume the structure as drawn.

Tests used:
cIAP1-BIR3 = target: T1, cIAP1-BIR3 (Homo sapiens, UniProt Q13490); test: DELFIA displacement assay (biotinylated AVPI peptide); assay type: binding
T1 construct: from the BIR3 domains of XIAP, cIAP1, and cIAP2

in vivo = conditions: Balb/c, mouse, plasma, 30 mg/kg
[1] = pH = 7.5, T = 25 °C; cited from earlier work
[2] = Solubility in dosing formulation; assay type: physicochemical; conditions: dosing formulation of 80% PBS, 10% ethanol, 10% Tween80, aqueous with cosolvent or surfactant or cyclodextrin
[3] = parameters: method as in PMID 31550155; conditions: cited from earlier work

SMILES: CN[C@@H](C)C(=O)N[C@H](C(=O)N1CCC[C@H]1C(=O)N[C@@H]1CCc2c(O)cccc21)C1CCCCC1 [compound 1, (S)-1-((S)-2-cyclohexyl-2-((S)-2-(methylamino)propanamido)acetyl)-N-((R)-4-hydroxy-2,3-dihydro-1H-inden-1-yl)pyrrolidine-2-carboxamide]
- IC50 (cIAP1-BIR3; after 6 h preincubation (bottom values)): 0.0193 µM
- IC50 (cIAP1-BIR3; without preincubation (top values)): 0.0166 ± 0.0017 µM

SMILES: CN[C@@H](C)C(=O)N[C@H](C(=O)N1CCC[C@H]1C(=O)N[C@@H]1CCc2c(OS(=O)(=O)F)cccc21)C1CCCCC1 [142D6, (R)-1-((S)-1-((S)-2-cyclohexyl-2-((S)-2-(methylamino)propanamido)acetyl)pyrrolidine-2-carboxamido)-2,3-dihydro-1H-inden-4-yl sulfurofluoridate]
- bioavailability at 24 h (in vivo; ip): 35%
- bioavailability at 24 h (in vivo; po): 36%
- solubility in aqueous buffer [1]: up to 2 mM
- solubility [2]: 7.5 mg/mL (≈ 13.6 mM)

SMILES: CN[C@@H](C)C(=O)N[C@H](C(=O)N1CCC[C@H]1c1nc(C(=O)c2ccc(F)cc2)cs1)C1CCCCC1 [LCL161]
- plasma stability t1/2 [3]: > 2 h
